In ChEMBL document CHEMBL3632622, “Synthesis and biological evaluation of novel N-phenyl ureidobenzenesulfonate derivatives as potential anticancer agents. Part 2. Modulation of the ring B” (Eur J Med Chem, 2015):
Active and inactive are the calls of the source. The calls are words filed in the database; no cut-off is given here.

Legend:
[1] = Antiproliferative activity against human HT1080 cells assessed as growth inhibition incubated for 48 hrs by sulforhodamine B assay; assay type: functional, cell-based, HT-1080; details: Homo sapiens, HT-1080, 48 h; read-out: IC50
M21 [2] = assay: Antiproliferative activity against human M21 cells assessed as growth inhibition incubated for 48 hrs by sulforhodamine B assay; assay type: functional, cell-based; details: M21, 48 h
HT-29 = assay: Antiproliferative activity against human HT-29 cells assessed as growth inhibition incubated for 48 hrs by sulforhodamine B assay; assay type: functional, cell-based; details: HT-29, 48 h
MCF7 = assay: Antiproliferative activity against human MCF7 cells assessed as growth inhibition incubated for 48 hrs by sulforhodamine B assay; assay type: functional, cell-based; details: MCF7, 48 h
M21 [3] = assay: Cell cycle arrest in human M21 cells assessed as accumulation at subG1 phase at 22 uM after 24 hrs by DAPI staining-based flow cytometry (reference value: 1.5%); assay type: functional
M21 [4] = assay: Cell cycle arrest in human M21 cells assessed as accumulation at G0/G1 phase at 22 uM after 24 hrs by DAPI staining-based flow cytometry (reference value: 65.1%); assay type: functional
M21 [5] = assay: Cell cycle arrest in human M21 cells assessed as accumulation at S phase at 22 uM after 24 hrs by DAPI staining-based flow cytometry (reference value: 17.4%); assay type: functional
M21 [6] = assay: Cell cycle arrest in human M21 cells assessed as accumulation at G2/M phase at 22 uM after 24 hrs by DAPI staining-based flow cytometry (reference value: 16%); assay type: functional
M21 [7] = assay: Cell cycle arrest in human M21 cells assessed as accumulation at subG1 phase at 6.5 uM after 24 hrs by DAPI staining-based flow cytometry (reference value: 1.5%); assay type: functional
M21 [8] = assay: Cell cycle arrest in human M21 cells assessed as accumulation at G0/G1 phase at 6.5 uM after 24 hrs by DAPI staining-based flow cytometry (reference value: 65.1%); assay type: functional
M21 [9] = assay: Cell cycle arrest in human M21 cells assessed as accumulation at S phase at 6.5 uM after 24 hrs by DAPI staining-based flow cytometry (reference value: 17.4%); assay type: functional
M21 [10] = assay: Cell cycle arrest in human M21 cells assessed as accumulation at G2/M phase at 6.5 uM after 24 hrs by DAPI staining-based flow cytometry (reference value: 16%); assay type: functional
M21 [11] = assay: Cell cycle arrest in human M21 cells assessed as accumulation at G0/G1 phase at 1.5 uM after 24 hrs by DAPI staining-based flow cytometry (reference value: 65.1%); assay type: functional
M21 [12] = assay: Cell cycle arrest in human M21 cells assessed as accumulation at S phase at 1.5 uM after 24 hrs by DAPI staining-based flow cytometry (reference value: 17.4%); assay type: functional
M21 [13] = assay: Cell cycle arrest in human M21 cells assessed as accumulation at G2/M phase at 1.5 uM after 24 hrs by DAPI staining-based flow cytometry (reference value: 16%); assay type: functional
M21 [14] = assay: Cell cycle arrest in human M21 cells assessed as accumulation at subG1 phase at 1.5 uM after 24 hrs by DAPI staining-based flow cytometry (reference value: 1.5%); assay type: functional
M21 [15] = assay: Induction DNA DSBs in human M21 cells assessed as increase in gamma H2AX foci at 0.75 uM incubated for 24 hrs by DAPI staining based immunocytochemistry; assay type: cell-based
M21 [16] = assay: Cell cycle arrest in human M21 cells assessed as accumulation at subG1 phase at 11 uM after 24 hrs by DAPI staining-based flow cytometry (reference value: 1.5%); assay type: functional
M21 [17] = assay: Cell cycle arrest in human M21 cells assessed as accumulation at G0/G1 phase at 11 uM after 24 hrs by DAPI staining-based flow cytometry (reference value: 65.1%); assay type: functional
M21 [18] = assay: Cell cycle arrest in human M21 cells assessed as accumulation at S phase at 11 uM after 24 hrs by DAPI staining-based flow cytometry (reference value: 17.4%); assay type: functional
M21 [19] = assay: Cell cycle arrest in human M21 cells assessed as accumulation at G2/M phase at 11 uM after 24 hrs by DAPI staining-based flow cytometry (reference value: 16%); assay type: functional
M21 [20] = assay: Cell cycle arrest in human M21 cells assessed as accumulation at subG1 phase at 16 uM after 24 hrs by DAPI staining-based flow cytometry (reference value: 1.5%); assay type: functional
M21 [21] = assay: Cell cycle arrest in human M21 cells assessed as accumulation at G0/G1 phase at 16 uM after 24 hrs by DAPI staining-based flow cytometry (reference value: 65.1%); assay type: functional
M21 [22] = assay: Cell cycle arrest in human M21 cells assessed as accumulation at S phase at 16 uM after 24 hrs by DAPI staining-based flow cytometry (reference value: 17.4%); assay type: functional
M21 [23] = assay: Cell cycle arrest in human M21 cells assessed as accumulation at G2/M phase at 16 uM after 24 hrs by DAPI staining-based flow cytometry (reference value: 16%); assay type: functional
M21 [24] = assay: Cell cycle arrest in human M21 cells assessed as accumulation at subG1 phase at 25 uM after 24 hrs by DAPI staining-based flow cytometry (reference value: 1.5%); assay type: functional
M21 [25] = assay: Cell cycle arrest in human M21 cells assessed as accumulation at G0/G1 phase at 25 uM after 24 hrs by DAPI staining-based flow cytometry (reference value: 65.1%); assay type: functional
M21 [26] = assay: Cell cycle arrest in human M21 cells assessed as accumulation at S phase at 25 uM after 24 hrs by DAPI staining-based flow cytometry (reference value: 17.4%); assay type: functional
M21 [27] = assay: Cell cycle arrest in human M21 cells assessed as accumulation at G2/M phase at 25 uM after 24 hrs by DAPI staining-based flow cytometry (reference value: 16%); assay type: functional
M21 [28] = assay: Cell cycle arrest in human M21 cells assessed as accumulation at subG1 phase at 5.1 uM after 24 hrs by DAPI staining-based flow cytometry (reference value: 1.5%); assay type: functional
M21 [29] = assay: Cell cycle arrest in human M21 cells assessed as accumulation at G0/G1 phase at 5.1 uM after 24 hrs by DAPI staining-based flow cytometry (reference value: 65.1%); assay type: functional
M21 [30] = assay: Cell cycle arrest in human M21 cells assessed as accumulation at S phase at 5.1 uM after 24 hrs by DAPI staining-based flow cytometry (reference value: 17.4%); assay type: functional
M21 [31] = assay: Cell cycle arrest in human M21 cells assessed as accumulation at G2/M phase at 5.1 uM after 24 hrs by DAPI staining-based flow cytometry (reference value: 16%); assay type: functional
M21 [32] = assay: Cell cycle arrest in human M21 cells assessed as accumulation at subG1 phase at 48 uM after 24 hrs by DAPI staining-based flow cytometry (reference value: 1.5%); assay type: functional
M21 [33] = assay: Cell cycle arrest in human M21 cells assessed as accumulation at G0/G1 phase at 48 uM after 24 hrs by DAPI staining-based flow cytometry (reference value: 65.1%); assay type: functional
M21 [34] = assay: Cell cycle arrest in human M21 cells assessed as accumulation at S phase at 48 uM after 24 hrs by DAPI staining-based flow cytometry (reference value: 17.4%); assay type: functional
M21 [35] = assay: Cell cycle arrest in human M21 cells assessed as accumulation at G2/M phase at 48 uM after 24 hrs by DAPI staining-based flow cytometry (reference value: 16%); assay type: functional
M21 [36] = assay: Cell cycle arrest in human M21 cells assessed as accumulation at subG1 phase at 2.2 uM after 24 hrs by DAPI staining-based flow cytometry (reference value: 1.5%); assay type: functional
M21 [37] = assay: Cell cycle arrest in human M21 cells assessed as accumulation at G0/G1 phase at 2.2 uM after 24 hrs by DAPI staining-based flow cytometry (reference value: 65.1%); assay type: functional
M21 [38] = assay: Cell cycle arrest in human M21 cells assessed as accumulation at S phase at 2.2 uM after 24 hrs by DAPI staining-based flow cytometry (reference value: 17.4%); assay type: functional
M21 [39] = assay: Cell cycle arrest in human M21 cells assessed as accumulation at G2/M phase at 2.2 uM after 24 hrs by DAPI staining-based flow cytometry (reference value: 16%); assay type: functional

## CCCc1cccc(OS(=O)(=O)c2ccc(NC(=O)NCCCl)cc2)c1
[1]
  IC50: 2.6 µM
M21 [2]
  IC50: 3.3 µM
HT-29
  IC50: 3.4 µM
MCF7
  IC50: 3.9 µM
M21 [3]
  Activity: 6%
M21 [4]
  Activity: 9.9%
M21 [5]
  Activity: 5.8%
M21 [6]
  Activity: 78.3%

## O=C(NCCCl)Nc1ccc(S(=O)(=O)Oc2c(Cl)cc(Cl)cc2Cl)cc1
[1]
  IC50: 1.5 µM
M21 [2]
  IC50: 1.3 µM
HT-29
  IC50: 1.5 µM
MCF7
  IC50: 1.7 µM
M21 [7]
  Activity: 8.5%
M21 [8]
  Activity: 11.6%
M21 [9]
  Activity: 7.3%
M21 [10]
  Activity: 72.6%

## CC[C@@]1(O)C(=O)OCc2c1cc1n(c2=O)Cc2cc3c(CN(C)C)c(O)ccc3nc2-1 [TOPOTECAN]
[1]
  IC50: 0.18 µM
M21 [2]
  IC50: 1.4 µM
HT-29
  IC50: 0.23 µM
MCF7
  IC50: 0.024 µM
M21 [11]
  Activity: 6.4%
M21 [12]
  Activity: 31.8%
M21 [13]
  Activity: 60.4%
M21 [14]
  Activity: 1.4%
M21 [15]
  Activity: Active

## CCOc1cccc(OS(=O)(=O)c2ccc(NC(=O)NCCCl)cc2)c1
[1]
  IC50: 3.3 µM
M21 [2]
  IC50: 2.4 µM
HT-29
  IC50: 3.2 µM
MCF7
  IC50: 3.3 µM
M21 [16]
  Activity: 8.4%
M21 [17]
  Activity: 22.2%
M21 [18]
  Activity: 13.5%
M21 [19]
  Activity: 55.9%

## O=C(NCCCl)Nc1ccc(S(=O)(=O)Oc2c(F)cccc2F)cc1
[1]
  IC50: 3.2 µM
M21 [2]
  IC50: 3.2 µM
HT-29
  IC50: 4.1 µM
MCF7
  IC50: 4.8 µM
M21 [20]
  Activity: 8.7%
M21 [21]
  Activity: 29.4%
M21 [22]
  Activity: 15.1%
M21 [23]
  Activity: 46.8%

## COc1cccc(OS(=O)(=O)c2ccc(NC(=O)NCCCl)cc2)c1
[1]
  IC50: 3.1 µM
M21 [2]
  IC50: 3.6 µM
HT-29
  IC50: 3.8 µM
MCF7
  IC50: 4.2 µM
M21 [24]
  Activity: 3.5%
M21 [25]
  Activity: 2.5%
M21 [26]
  Activity: 6.3%
M21 [27]
  Activity: 87.7%

## O=C(NCCCl)Nc1ccc(S(=O)(=O)Oc2cc(Cl)c(Cl)cc2Cl)cc1
[1]
  IC50: 1.4 µM
M21 [2]
  IC50: 1 µM
HT-29
  IC50: 1.2 µM
MCF7
  IC50: 1.2 µM
M21 [28]
  Activity: 5.5%
M21 [29]
  Activity: 3.3%
M21 [30]
  Activity: 8.6%
M21 [31]
  Activity: 82.6%

## O=C(NCCCl)Nc1ccc(S(=O)(=O)Oc2ccc(F)cc2F)cc1
[1]
  IC50: 9.4 µM
M21 [2]
  IC50: 9.6 µM
HT-29
  IC50: 9.6 µM
MCF7
  IC50: 9.3 µM
M21 [32]
  Activity: 5.2%
M21 [33]
  Activity: 13.4%
M21 [34]
  Activity: 10%
M21 [35]
  Activity: 71.4%

## CCOc1ccccc1OS(=O)(=O)c1ccc(NC(=O)NCCCl)cc1
[1]
  IC50: 2.2 µM
M21 [2]
  IC50: 1.1 µM
HT-29
  IC50: 1.4 µM
MCF7
  IC50: 1.7 µM
M21 [36]
  Activity: 6.7%
M21 [37]
  Activity: 28.8%
M21 [38]
  Activity: 11.8%
M21 [39]
  Activity: 52.7%
